In experiment [1] the target is T1, GHSR1a (Homo sapiens, UniProt Q92847).
T1 construct: expressed in transfected cells; host or cells: HEK293
As to the kind of experiment: Calcium FLIPR assay, GHSR-1a agonism. More on the design: Emax: unit not given here. The conditions noted are these: HEK293/GHSR1a cells. In kind it is cell-based. An outline of the steps: (§1)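 Calcium flux measured by FLIPR in GHSR1a-expressing HEK293 cells after 30-60 min dye preloading. Compound was added at t=20 sec, alone for agonism or with ghrelin (10 nM) for antagonism, and fluorescence recorded for 2 minutes. EC50 and IC50 were estimated from dose-response data.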

Experiment [2] addresses T1, GHSR1a. Briefly: Calcium FLIPR assay, GHSR-1a antagonism (reduction of ghrelin response). In kind it is cell-based. The conditions noted are these: HEK293/GHSR1a cells, ghrelin 10 nM. An outline of the steps:
as §1

The structures appear in SMILES notation.

T1 sequence (Q92847 whole entry): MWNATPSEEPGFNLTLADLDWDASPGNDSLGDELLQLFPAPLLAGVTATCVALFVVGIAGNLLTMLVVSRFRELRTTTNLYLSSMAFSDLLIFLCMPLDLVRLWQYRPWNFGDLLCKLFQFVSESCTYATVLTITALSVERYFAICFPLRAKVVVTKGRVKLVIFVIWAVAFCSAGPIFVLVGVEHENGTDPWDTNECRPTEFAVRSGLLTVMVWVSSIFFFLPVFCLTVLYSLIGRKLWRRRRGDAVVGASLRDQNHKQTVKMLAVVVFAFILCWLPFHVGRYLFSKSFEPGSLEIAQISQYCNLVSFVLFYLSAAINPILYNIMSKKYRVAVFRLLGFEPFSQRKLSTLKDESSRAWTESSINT

Consider `COCc1cncc(-c2ccc(C(C)NC(=O)N(C)C3CCN(C)CC3)c(Cl)c2Cl)c1` (centres unmarked) [Compound H0708, 3-(1-(2,3-dichloro-4-(5-(methoxymethyl)pyridin-3-yl)phenyl)ethyl)-1-methyl-1-(1-methylpiperidin-4-yl)urea], for which the EC50 (commonly the concentration at which the effect is half-maximal) at GHSR1a [1] was over 30000 nM. Also, on GHSR1a [2], the IC50 (usually the concentration at which inhibition is half-maximal) is 1370 nM.
`CON(C(=O)NC(C#N)c1ccc(-c2cncnc2)c(Cl)c1Cl)C1CCN(C)CC1` (centres unmarked) [Compound H0709]: the 50% effective concentration (EC50) at GHSR1a [1] is over 30000 nM. Further, the half-inhibitory concentration (IC50) on GHSR1a [2] came out at 676 nM.
As for `C#Cc1cncc(-c2ccc(C(C)NC(=O)N(C)C3CCN(C)CC3)c(Cl)c2Cl)c1` (centres unmarked) [Compound H0710, 3-(1-(2,3-dichloro-4-(5-ethynylpyridin-3-yl)phenyl)ethyl)-1-methyl-1-(1-methylpiperidin-4-yl)urea], at GHSR1a [1], the EC50 turned out to be 395 nM and the Emax is reported as 1621. Also, the 50% inhibitory concentration (IC50) on GHSR1a [2] was 275 nM.
Consider `CC(NC(=O)N(C)C1CCN(C)CC1)c1ccc(-c2cncc(-c3c[nH]cn3)c2)c(Cl)c1Cl` (centres unmarked) [Compound H0711, 3-(1-(4-(5-(1H-imidazol-4-yl)pyridin-3-yl)-2,3-dichlorophenyl)ethyl)-1-methyl-1-(1-methylpiperidin-4-yl)urea], for which the EC50 at GHSR1a [1] is over 30000 nM. Moreover, at GHSR1a [2], the IC50 is 1850 nM.
Regarding `CC(=O)Nc1cncc(-c2ccc(C(C)NC(=O)N(C)C3CCN(C)CC3)c(Cl)c2Cl)c1` (centres unmarked) [Compound H0712, N-(5-(2,3-dichloro-4-(1-(3-methyl-3-(1-methylpiperidin-4-yl)ureido)ethyl)phenyl)pyridin-3-yl)acetamide], on GHSR1a [1], the EC50 amounted to 220 nM and the Emax is recorded as 1962. Further, the IC50 on GHSR1a [2] amounted to 420 nM.
Regarding `CC(NC(=O)N(C)C1CCN(C)CC1)c1ccc(-c2ccc(C#N)s2)c(Cl)c1Cl` (centres unmarked) [Compound H0713, 3-(1-(2,3-dichloro-4-(5-cyanothiophen-2-yl)phenyl)ethyl)-1-methyl-1-(1-methylpiperidin-4-yl)urea], on GHSR1a [1], the EC50 turned out to be 29 nM and the Emax stood at 3424. For the same molecule, on GHSR1a [2], the IC50 was 187 nM.
Consider `COCCc1cncc(-c2ccc(C(C)NC(=O)N(C)C3CCN(C)CC3)c(Cl)c2Cl)c1` (centres unmarked) [Compound H0714, 3-(1-(2,3-dichloro-4-(5-(2-methoxyethyl)pyridin-3-yl)phenyl)ethyl)-1-methyl-1-(1-methylpiperidin-4-yl)urea], for which, on GHSR1a [1], the concentration giving a half-maximal response (EC50) was over 30000 nM. In addition, the IC50 at GHSR1a [2] came to 453 nM.
In the case of `CCc1cncc(-c2ccc(C(C)NC(=O)N(C)C3CCN(C)CC3)c(Cl)c2Cl)c1` (centres unmarked) [Compound H0715, 3-(1-(2,3-dichloro-4-(5-ethylpyridin-3-yl)phenyl)ethyl)-1-methyl-1-(1-methylpiperidin-4-yl)urea], at GHSR1a [1], the EC50 was 42 nM and the Emax is given as 2479. In addition, at GHSR1a [2], the concentration for half-maximal inhibition (IC50) was 57 nM.
For `CC(NC(=O)N(C)C1CCN(C)CC1)c1ccc(-c2cncc(-c3cccs3)c2)c(Cl)c1Cl` (centres unmarked) [Compound H0717, 3-(1-(2,3-dichloro-4-(5-(thiophen-2-yl)pyridin-3-yl)phenyl)ethyl)-1-methyl-1-(1-methylpiperidin-4-yl)urea], the EC50 on GHSR1a [1] was over 30000 nM. Moreover, the 50% inhibitory concentration (IC50) on GHSR1a [2] turned out to be 396 nM.
For `CC(NC(=O)N(C)C1CCN(C)CC1)c1ccc(-c2cncc(C3CCCC3)c2)c(Cl)c1Cl` (centres unmarked) [Compound H0718, 3-(1-(2,3-dichloro-4-(5-cyclopentylpyridin-3-yl)phenyl)ethyl)-1-methyl-1-(1-methylpiperidin-4-yl)urea], the EC50 at GHSR1a [1] is over 30000 nM. The IC50 at GHSR1a [2] was determined as 499 nM.
For `CC(NC(=O)N(C)C1CCN(C)CC1)c1ccc(-c2cncc(N3CCCC3)c2)c(Cl)c1Cl` (centres unmarked) [Compound H0719, 3-(1-(2,3-dichloro-4-(5-(pyrrolidin-1-yl)pyridin-3-yl)phenyl)ethyl)-1-methyl-1-(1-methylpiperidin-4-yl)urea], in that order: over 30000 nM and 780 nM.
In the case of `CC(NC(=O)N(C)C1CCN(C)CC1)c1ccc(-c2ccc(C(=O)N(C)C)s2)c(Cl)c1Cl` (centres unmarked) [Compound H0726, 5-(2,3-dichloro-4-(1-(3-methyl-3-(1-methylpiperidin-4-yl)ureido)ethyl)phenyl)-N,N-dimethylthiophene-2-carboxamide], the EC50 at GHSR1a [1] was over 30000 nM. Moreover, at GHSR1a [2], the 50% inhibitory concentration (IC50) was 456 nM.
The matching figures for `CN1CCC(N(C)C(=O)NC2(c3ccc(-c4cncnc4)c(Cl)c3Cl)CCOCC2)CC1` [Compound H0727, 3-(4-(2,3-dichloro-4-(pyrimidin-5-yl)phenyl)tetrahydro-2H-pyran-4-yl)-1-methyl-1-(1-methylpiperidin-4-yl)urea]: over 30000 nM and 3600 nM.
In the case of `CC(NC(=O)N(C)C1CCN(C)CC1)c1ccc(-c2cccnn2)c(Cl)c1Cl` (centres unmarked) [Compound H0729, 3-(1-(2,3-dichloro-4-(pyridazin-3-yl)phenyl)ethyl)-1-methyl-1-(1-methylpiperidin-4-yl)urea], at GHSR1a [1], the EC50 stood at 95 nM and the Emax is reported as 2818. The IC50 on GHSR1a [2] stood at 100 nM.
For `CC(O)C#Cc1ccc(C(C)NC(=O)N(C)C2CCN(C)CC2)c(Cl)c1Cl` (centres unmarked) [Compound H0733, 3-(1-(2,3-dichloro-4-(3-hydroxybut-1-yn-1-yl)phenyl)ethyl)-1-methyl-1-(1-methylpiperidin-4-yl)urea], the concentration giving a half-maximal response (EC50) at GHSR1a [1] is over 30000 nM. Besides, the IC50 on GHSR1a [2] is 95 nM.
Turning to `CC(NC(=O)N(C)C1CCN(C)CC1)c1ccc(C#Cc2ccccn2)c(Cl)c1Cl` (centres unmarked) [Compound H0734, 3-(1-(2,3-dichloro-4-(pyridin-2-ylethynyl)phenyl)ethyl)-1-methyl-1-(1-methylpiperidin-4-yl)urea], at GHSR1a [1], the EC50 is over 30000 nM. Also, the IC50 at GHSR1a [2] worked out at 202 nM.
`CC(NC(=O)N(C)C1CCN(C)CC1)c1ccc(-c2cncc(-c3ncccn3)c2)c(Cl)c1Cl` (centres unmarked) [Compound H0735, 3-(1-(2,3-dichloro-4-(5-(pyrimidin-2-yl)pyridin-3-yl)phenyl)ethyl)-1-methyl-1-(1-methylpiperidin-4-yl)urea]: the EC50 at GHSR1a [1] was over 30000 nM. Further, the IC50 at GHSR1a [2] was 209 nM.
For `COc1cncc(-c2ccc(C(C)NC(=O)N(C)C3CCN(C)CC3)c(Cl)c2Cl)n1` (centres unmarked) [Compound H0738, 3-(1-(2,3-dichloro-4-(6-methoxypyrazin-2-yl)phenyl)ethyl)-1-methyl-1-(1-methylpiperidin-4-yl)urea], in that order: over 30000 nM and 696 nM.
`C#Cc1ccc(C(CC2CC2)NC(=O)N(OC)C2CCN(C)CC2)c(Cl)c1Cl` (centres unmarked) [Compound H0740, 3-(2-cyclopropyl-1-(2,3-dichloro-4-ethynylphenyl)ethyl)-1-methoxy-1-(1-methylpiperidin-4-yl)urea]: at GHSR1a [1], the EC50 amounted to 1.5 nM and the Emax is given as 3620. The 50% inhibitory concentration (IC50) on GHSR1a [2] turned out to be 7 nM.
In the case of `CON(C(=O)NC(CC1CC1)c1ccc(-c2cnccn2)c(Cl)c1Cl)C1CCN(C)CC1` (centres unmarked) [Compound H0741, 3-(2-cyclopropyl-1-(2,3-dichloro-4-(pyrazin-2-yl)phenyl)ethyl)-1-methoxy-1-(1-methylpiperidin-4-yl)urea], on GHSR1a [1], the EC50 is over 30000 nM. The IC50 on GHSR1a [2] amounted to 15 nM.
On to `C#Cc1ccc(C(C)NC(=O)N(OC)C2CCN(C)CC2)c(Cl)c1Cl` (centres unmarked) [Compound H0742, 3-(1-(2,3-dichloro-4-ethynylphenyl)ethyl)-1-methoxy-1-(1-methylpiperidin-4-yl)urea], for which, on GHSR1a [1], the concentration for a half-maximal effect (EC50) is over 30000 nM. Moreover, the IC50 on GHSR1a [2] came out at 54 nM.
As for `CON(C(=O)NC(C)c1ccc(-c2cnccn2)c(Cl)c1Cl)C1CCN(C)CC1` (centres unmarked) [Compound H0743, 3-(1-(2,3-dichloro-4-(pyrazin-2-yl)phenyl)ethyl)-1-methoxy-1-(1-methylpiperidin-4-yl)urea], the half-maximal effective concentration (EC50) at GHSR1a [1] is over 30000 nM. Moreover, the half-maximal inhibitory concentration (IC50) at GHSR1a [2] was determined as 94 nM.
`C#Cc1ccc(C(CC2CC2)NC(=O)N(OCC)C2CCN(C)CC2)c(Cl)c1Cl` (centres unmarked) [Compound H0744, 3-(2-cyclopropyl-1-(2,3-dichloro-4-ethynylphenyl)ethyl)-1-ethoxy-1-(1-methylpiperidin-4-yl)urea]: on GHSR1a [1], the EC50 came to 45 nM and the Emax is listed as 3536. Besides, on GHSR1a [2], the concentration for half-maximal inhibition (IC50) came out at 33 nM.
Consider `C#Cc1ccc(C(C)NC(=O)N(O)C2CCN(C)CC2)c(Cl)c1Cl` (centres unmarked) [Compound H0745, 3-(1-(2,3-dichloro-4-ethynylphenyl)ethyl)-1-hydroxy-1-(1-methylpiperidin-4-yl)urea], for which, at GHSR1a [1], the 50% effective concentration (EC50) was determined as 97 nM and the Emax came out at 2391. The half-maximal inhibitory concentration (IC50) on GHSR1a [2] is 57 nM.
Take `CC(NC(=O)N(C)C1CCN(C)CC1)c1ccc(-c2cncc(-c3ccoc3)c2)c(Cl)c1Cl` (centres unmarked) [Compound H0746, 3-(1-(2,3-dichloro-4-(5-(furan-3-yl)pyridin-3-yl)phenyl)ethyl)-1-methyl-1-(1-methylpiperidin-4-yl)urea]: at GHSR1a [1], the 50% effective concentration (EC50) was over 30000 nM. In addition, at GHSR1a [2], the concentration for half-maximal inhibition (IC50) is 216 nM.
The matching figures for `CC(NC(=O)N(C)C1CCN(C)CC1)c1ccc(-c2cncc(-c3ccsc3)c2)c(Cl)c1Cl` (centres unmarked) [Compound H0747, 3-(1-(2,3-dichloro-4-(5-(thiophen-3-yl)pyridin-3-yl)phenyl)ethyl)-1-methyl-1-(1-methylpiperidin-4-yl)urea]: over 30000 nM and 84 nM.
As to `CC(NC(=O)N(C)C1CCN(C)CC1)c1ccc(-c2cncc(-c3cnn(C)c3)c2)c(Cl)c1Cl` (centres unmarked) [Compound H0748, 3-(1-(2,3-dichloro-4-(5-(1-methyl-1H-pyrazol-4-yl)pyridin-3-yl)phenyl)ethyl)-1-methyl-1-(1-methylpiperidin-4-yl)urea], the EC50 at GHSR1a [1] was over 30000 nM. The half-maximal inhibitory concentration (IC50) on GHSR1a [2] worked out at 554 nM.
In the case of `C#Cc1ccc(C(C)NC(=O)N(OCC)C2CCN(C)CC2)c(Cl)c1Cl` (centres unmarked) [Compound H0749, 3-(1-(2,3-dichloro-4-ethynylphenyl)ethyl)-1-ethoxy-1-(1-methylpiperidin-4-yl)urea], on GHSR1a [1], the concentration for a half-maximal effect (EC50) was 397 nM and the Emax stood at 1554. The IC50 at GHSR1a [2] amounted to 111 nM.

Values taken from patent US9546157B2, “Asymmetric piperidinyl-substituted ureas as medicines” (Helsinn Healthcare SA, priority 2014, dated 2017).
